What all share (assay type): cell-based
The test system of assay [1] is MCF-7 breast cancer cells. The assay is described as follows: MTT assay, cell viability of breast cancer cell line (MCF-7). Particulars: 1 μM, 72 hours. As to the method:
Specifically, MCF-7 breast cancer cells deposited under an accession number of KCTC13643BP on Sep. […] At this time, DMSO (dimethyl sulfoxide) was added to a control group in an amount to be 0.01% of the total medium, 1 μM paclitaxel was added to a positive control group, and then these control group and positive control group were cultured for 72 hours.
When each of the culture times passed after drug treatment, the supernatant of each medium was removed, the MTT reagent was added to the fresh medium so as to be 0.5 mg/ml, the cells were cultured for 3 hours, then the supernatant was removed again, and then the medium was reconstituted with 100 μL of DMSO. Thereafter, the absorbance of cells was measured at 590 nm by using an ELISA instrument.

The subject of a further assay is HCC-78 cells. The assay is described as follows: WST-1 assay, cell growth inhibitory effect on lung carcinoma cell line (HCC-78). Particulars: for inhibition of growth of HCC-78 cells (in words): 1 μM, 24, 48 and 72 hours, Student's t-test, p<0.05; for growth rate of HCC-78 cells (control group = 100%): 1 μM. The procedure: Specifically, HCC-78 lung cancer cells deposited under an accession number of KCTC13642BP on Sep. […] At this time, DMSO (dimethyl sulfoxide) was added to a control group in an amount to be 0.01% of the total medium, 1 μM doxorubicin was added to a positive control group, and then these control group and positive control group were cultured for 24, 48, and 72 hours, respectively. In addition, the experiment was conducted using an A549 cell line instead of the HCC cell line as a negative control group. The A549 cell line is a kRAS mutant cell line and is also a cell line which is not involved in the overexpression of ALK and ROS-1.
When each of the culture times passed after drug treatment, the WST-1 reagent was added to each medium in an amount to be 10% of the medium, the cells were cultured for 1 hour, and then the absorbance of cells was measured at 470 nm by using an ELISA instrument.

A further assay deals with MCF-7 cell line. The assay is described as follows: Change in metabolites in MCF-7 cell line after crizotinib treatment, UHPLC-MS. As to conditions: MCF-7, 1 μM, 12 hours, n=5.
In a further assay the test system is HCC-78 cell line. Kind of assay: Change in metabolites in HCC-78 cell line after ALK/ROS-1 kinase inhibitor treatment, UHPLC-MS. Particulars: HCC-78, 1 μM, 24 hours, n=5.

Procedure for HCC-78 cell line: HCC-78 lung cancer cells were cultured in a 5% carbon dioxide cell incubator at a temperature of 37° C. using a RPMI medium containing 10% fetal bovine serum and 1% antibiotic. […] At this time, as a control group, DMSO (dimethyl sulfoxide) was added to the cells in an amount to be 0.01% of the total medium, and the cells were cultured for 24 hours. Each cell was cultured in 5 cell dishes for each group so that the total number of experiments for each group was 5 (n=5).
After the culture time of 24 hours had elapsed, the medium was removed, and the cells were washed two times with PBS (phosphate buffered saline). The cells were then acquired from the culture dish using a cell scraper, put in a tube, and stored at −80° C.
(§1) Thereafter, a process in which the mixed solution was frozen using liquid nitrogen, dissolved in water at room temperature, and then sonicated for 30 seconds was repeated three times to destroy the cells. Thereafter, the resultant mixed solution was subjected to centrifugation at 14000 rpm for 10 minutes, and only the supernatant was separated from this. At this time, DNA quantitation was conducted in order to correct the cell volume of the intracellular fluid extract acquired according to the series of procedures. DNA quantitation was conducted by mixing the extract with water at a ratio of 1:3, putting 5 μL of the mixture in a cuvette, and measuring the quantity at 260 nm by using a spectrophotometer Nano-MD of SHINKO CO., LTD.
(§2) Specifically, 10 μL of the acquired sample was injected into the ultra-high-performance liquid chromatography system-mass spectrometer, and the temperature of the injector was maintained at 4° C. […]
(§3) Specifically, Excel raw data attained by conducting calibration and peak alignment using the compound discovery software of Thermo Fisher Scientific Inc. was extracted from the chromatogram. […] The extracted file was first divided by the internal standard substance and corrected using DNA quantitation of cells, and statistical processing was conducted using SIMCA software. […]
Procedure for MCF-7 cell line: MCF-7 breast cancer cells were cultured in a 5% carbon dioxide cell incubator at a temperature of 37° C. using a DMEM medium containing 10% fetal bovine serum and 1% antibiotic. […] At this time, as a control group, DMSO was added to the cells in an amount to be 0.01% of the total medium, and the cells were cultured for 12 hours. Each cell was cultured in 5 cell dishes for each group so that the total number of experiments for each group was 5 (n=5).
After the culture time of 12 hours had elapsed, the medium was removed, and the cells were washed two times with PBS. The cells were then acquired from the culture dish using a cell scraper, put in a tube, and stored at −80° C.
as §1, §2, §3

`CC(C)(C)c1nc(-c2cccc(NS(=O)(=O)c3c(F)cccc3F)c2F)c(-c2ccnc(N)n2)s1` [dabrafenib]: the “inhibition of cell growth of MCF-7 cell line (in words)” value in assay [1] (Student's t-test, p value <0.05) is given as 5 kinds of kinase inhibitors except dabrafenib significantly inhibited.
In the case of `CC(=O)O[C@H]1C(=O)[C@@]2(C)[C@H]([C@H](OC(=O)c3ccccc3)[C@]3(O)C[C@H](OC(=O)[C@H](O)[C@@H](NC(=O)c4ccccc4)c4ccccc4)C(C)=C1C3(C)C)[C@]1(OC(C)=O)CO[C@@H]1C[C@@H]2O` [paclitaxel], in assay [1], the “cell growth rate of MCF-7 as compared with control group” value is on record as 46.86%.
Take `C[C@@H](Oc1cc(-c2cnn(C3CCNCC3)c2)cnc1N)c1c(Cl)ccc(F)c1Cl` [crizotinib]: the “inhibition of growth of HCC-78 cells (in words)” value in the assay with HCC-78 cells is reported as “significantly inhibited, particularly time dependently inhibited the growth of HCC-78 cells”. In addition, in the assay with MCF-7 cell line, the AMP increase was determined as 82.91%, the adenosine decrease is 32.07% and the cAMP decrease came to 28.6%.
Turning to `COc1cccc2c1C(=O)c1c(O)c3c(c(O)c1C2=O)C[C@@](O)(C(=O)CO)C[C@@H]3O[C@H]1C[C@H](N)[C@H](O)[C@H](C)O1` [doxorubicin], in the assay on HCC-78 cells (24 hours after treatment), the “growth rate of HCC-78 cells (control group = 100%)” value worked out at 57.65%.
For `Cc1cc(Nc2ncc(Cl)c(Nc3ccccc3S(=O)(=O)C(C)C)n2)c(OC(C)C)cc1C1CCNCC1` [ceritinib], in the assay on HCC-78 cells, the “inhibition of growth of HCC-78 cells (in words)” value is reported as “significantly inhibited, particularly time dependently inhibited the growth of HCC-78 cells”. Besides, the “growth rate of HCC-78 cells (control group = 100%)” value in the assay with HCC-78 cells (24 hours after treatment) was 73.73%. The “growth rate of HCC-78 cells (control group = 100%)” value in the assay with HCC-78 cells (48 hours after treatment) was 37.17%. Besides, the “growth rate of HCC-78 cells (control group = 100%)” value with HCC-78 cells (72 hours after treatment) amounted to 17.99%. Also, in the assay on HCC-78 cell line, the “AMP increase as compared with control group” value was 188.21%, the “adenosine decrease as compared with control group” value was found to be 95.31% and the “cAMP decrease as compared with control group” value amounted to 66.78%.

Values taken from patent publication US11506654B2, “Method, composition and kit for screening ALK or ROS-1 kinase inhibitor” (KOREA INSTITUTE OF SCIENCE AND TECHNOLOGY, priority 2018, dated 2022).
